Measurements as given in patent US11000033B2, “Ketone or oxime compound, and herbicide” (NISSAN CHEMICAL CORPORATION, priority 2014, dated 2021).

Experiments:
Format in all cases: in vivo
Digitaria ciliaris = assay: Test Example 5: herbicidal effect by foliage application, plastic box (symbol F); settings: 320 g/ha, 3 weeks after application
In short: (§1)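 Leaf-applied emulsion, water-diluted to a preset herbicide dose, on two-week-old seedlings raised in a 25° C. to 30° C. greenhouse; injury rated at 3 weeks using earlier criteria.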

Stellaria media = assay: Test Example 4: herbicidal effect by soil treatment (symbol P); settings: for P: Stellaria media, herbicidal effect grade: 320 g/ha
In short: (§2)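 Seeds were sown in sterilized diluvial soil, covered with about 1.5 cm of soil, and the soil surface was sprayed with a water-diluted emulsion of the compound at a predetermined rate. Plants grew in a greenhouse at 25° C. to 30° C.; effects were scored visually 3 weeks after application.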

Monochoria vaginalis = assay: Test Example 2: herbicidal activity, application during weed generation in submerged conditions (symbol C); settings: Table 23; application herbicide amount 320 g/ha; grade 0-5 by criteria of Test Example 1
In short: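 Compound was applied as a water-diluted emulsion into the standing water of flooded pots (4 cm) once co-sown weeds reached one to two leaves. Greenhouse temperature was 25° C. to 30° C., soil was alluvial, and each species was rated visually after 3 weeks.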

Amaranthus retroflexus = assay: Test Example 4: herbicidal effect by soil treatment (symbol N); settings: for N: Amaranthus retroflexus, herbicidal effect grade: 320 g/ha
In short: as §2

Alopecurus myosuroides = assay: Test Example 5: herbicidal effect by foliage application, plastic box (symbol J); settings: 320 g/ha, 3 weeks after application
In short: as §1

beet = assay: Test Example 5: effect on crop by foliage application, plastic box (symbol f); settings: 320 g/ha, 3 weeks after application
In short: (§3)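 Foliage-application test plants come from spot sowing in sterilized diluvial soil under a soil layer of about 1.5 cm, grown at 25° C. to 30° C. in a greenhouse.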

Apera spica-venti = assay: Test Example 4: herbicidal effect by soil treatment (symbol L); settings: for L: Apera spica-venti, herbicidal effect grade: 320 g/ha
In short: as §2

wheat [1] = assay: Test Example 4: effect on crop by soil treatment (symbol e); settings: for e: wheat, effect grade on crop: 320 g/ha
In short: (§4)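 Soil-treatment setup: crop and weed seeds were spot-sown into sterilized diluvial soil, then buried beneath approximately 1.5 cm of it, and the boxes were housed in a 25–30° C. greenhouse.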

[2] = test system: directly sowed rice plant; assay: Test Example 3: effect on crop by foliage application, Wagner pot (symbol b); settings: application herbicide amount 320 g/ha
In short: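 Plants are raised from seed in flooded paddy conditions: water stands 0.1–0.5 cm over alluvial soil, and the pot is kept in a greenhouse at 25–30 °C. Species sown are barnyardgrass (E. crus-galli var. crus-galli), Leptochloa chinensis, Cyperus difformis and rice.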

Avena fatua = assay: Test Example 5: herbicidal effect by foliage application, plastic box (symbol I); settings: 320 g/ha, 3 weeks after application
In short: as §1

soybean = assay: Test Example 5: effect on crop by foliage application, plastic box (symbol d); settings: 320 g/ha, 3 weeks after application
In short: as §3

Setaria viridis = assay: Test Example 4: herbicidal effect by soil treatment (symbol G); settings: for G: Setaria viridis, herbicidal effect grade: 320 g/ha
In short: as §2

wheat [3] = assay: Test Example 5: effect on crop by foliage application, plastic box (symbol e); settings: 320 g/ha, 3 weeks after application
In short: as §3

Cyperus difformis = assay: Test Example 3: herbicidal effect by foliage application, Wagner pot (symbol E); settings: application herbicide amount 320 g/ha
In short: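 In a shallow-flooded alluvial soil system held at 25–30 °C, plants including rice grew for 14 days and were then sprayed over the foliage with emulsion diluted to a fixed herbicide amount. Visual rating followed at 3 weeks.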

Abutilon theophrasti = assay: Test Example 4: herbicidal effect by soil treatment (symbol M); settings: for M: Abutilon theophrasti, herbicidal effect grade: 320 g/ha
In short: as §2

rice = assay: Test Example 4: effect on crop by soil treatment (symbol b); settings: for b: directly sowed rice plant, effect grade on crop: 320 g/ha
In short: as §4

[4] = application herbicide amount 320 g/ha

Compound | F: Digitaria ciliaris, herbicidal effect (criteria 0-5) (Digitaria ciliaris) | P: Stellaria media, herbicidal effect grade (Stellaria media) | Herbicidal effect grade, C: Monochoria vaginalis (Monochoria vaginalis) | N: Amaranthus retroflexus, herbicidal effect grade (Amaranthus retroflexus) | J: Alopecurus myosuroides, herbicidal effect (criteria 0-5) (Alopecurus myosuroides) | f: beet, effect on crop (criteria 0-5) (beet) | L: Apera spica-venti, herbicidal effect grade (Apera spica-venti) | e: wheat, effect grade on crop (wheat [1]) | effect on crop b (directly sowed rice plant), grade 0-5 [2] | I: Avena fatua, herbicidal effect (criteria 0-5) (Avena fatua) | d: soybean, effect on crop (criteria 0-5) (soybean) | G: Setaria viridis, herbicidal effect grade (Setaria viridis) | e: wheat, effect on crop (criteria 0-5) (wheat [3]) | herbicidal effect on E, grade 0-5 (Cyperus difformis) | M: Abutilon theophrasti, herbicidal effect grade (Abutilon theophrasti) | b: directly sowed rice plant, effect grade on crop (rice) | also measured
CON=C(CC1CC(O)=C(c2c(C)cc(C)cc2C)C1=O)C1CCCCC1 (centres unmarked) [1-085] | 3 (Herbicidal ratio of 40% or higher and lower than 70%) | 0 (Herbicidal ratio of 5% or lower (almost no effect)) | 0 (Herbicidal ratio of 5% or lower (almost no effect)) | 0 (Herbicidal ratio of 5% or lower (almost no effect)) | 3 (Herbicidal ratio of 40% or higher and lower than 70%) | 0 (Herbicidal ratio of 5% or lower (almost no effect)) | 3 (Herbicidal ratio of 40% or higher and lower than 70%) | 0 (Herbicidal ratio of 5% or lower (almost no effect)) | 5 (Herbicidal ratio of 90% or more (almost completely withered)) | 3 (Herbicidal ratio of 40% or higher and lower than 70%) | 0 (Herbicidal ratio of 5% or lower (almost no effect)) | 5 (Herbicidal ratio of 90% or more (almost completely withered)) | 3 (Herbicidal ratio of 40% or higher and lower than 70%) | 0 (Herbicidal ratio of 5% or lower (almost no effect)) | 0 (Herbicidal ratio of 5% or lower (almost no effect)) | 5 (Herbicidal ratio of 90% or more (almost completely withered)) | 
CON=C(C)CC1CC(OC(=O)C2=C(Br)CCC2)=C(c2c(C)cc(C)cc2C)C1=O (centres unmarked) [1-089] | 5 (Herbicidal ratio of 90% or more (almost completely withered)) | 0 (Herbicidal ratio of 5% or lower (almost no effect)) | 3 (Herbicidal ratio of 40% or higher and lower than 70%) | 3 (Herbicidal ratio of 40% or higher and lower than 70%) | 5 (Herbicidal ratio of 90% or more (almost completely withered)) | 0 (Herbicidal ratio of 5% or lower (almost no effect)) | 5 (Herbicidal ratio of 90% or more (almost completely withered)) | 1 (Herbicidal ratio of 5% or higher and lower than 20%) | 5 (Herbicidal ratio of 90% or more (almost completely withered)) | 5 (Herbicidal ratio of 90% or more (almost completely withered)) | 2 (Herbicidal ratio of 20% or higher and lower than 40%) | 5 (Herbicidal ratio of 90% or more (almost completely withered)) | 5 (Herbicidal ratio of 90% or more (almost completely withered)) | 5 (Herbicidal ratio of 90% or more (almost completely withered)) | 2 (Herbicidal ratio of 20% or higher and lower than 40%) | 5 (Herbicidal ratio of 90% or more (almost completely withered)) | 
CON=C(CC1CC(O)=C(c2c(C)cc(C)cc2C)C1=O)C1CCCC1 (centres unmarked) [1-078] | 1 (Herbicidal ratio of 5% or higher and lower than 20%) | 0 (Herbicidal ratio of 5% or lower (almost no effect)) | 0 (Herbicidal ratio of 5% or lower (almost no effect)) | 0 (Herbicidal ratio of 5% or lower (almost no effect)) | 4 (Herbicidal ratio of 70% or higher and lower than 90%) | 0 (Herbicidal ratio of 5% or lower (almost no effect)) | 4 (Herbicidal ratio of 70% or higher and lower than 90%) | 0 (Herbicidal ratio of 5% or lower (almost no effect)) | 5 (Herbicidal ratio of 90% or more (almost completely withered)) | 1 (Herbicidal ratio of 5% or higher and lower than 20%) | 0 (Herbicidal ratio of 5% or lower (almost no effect)) | 5 (Herbicidal ratio of 90% or more (almost completely withered)) | 0 (Herbicidal ratio of 5% or lower (almost no effect)) | 0 (Herbicidal ratio of 5% or lower (almost no effect)) | 0 (Herbicidal ratio of 5% or lower (almost no effect)) | 5 (Herbicidal ratio of 90% or more (almost completely withered)) | 
CCC(CC1CC(O)=C(c2c(C)cc(C)cc2C)C1=O)=NOC (centres unmarked) [1-038] |  |  | 4 (Herbicidal ratio of 70% or higher and lower than 90%) |  |  |  |  |  | 5 (Herbicidal ratio of 90% or more (almost completely withered)) |  |  |  |  | 5 (Herbicidal ratio of 90% or more (almost completely withered)) |  |  | F: Digitaria ciliaris, herbicidal effect grade (Digitaria ciliaris): 5 (Herbicidal ratio of 90% or more (almost completely withered)); P (Stellaria media) herbicidal effect grade (Stellaria media; [4]): 0 (Herbicidal ratio of 5% or lower (almost no effect)); N (Amaranthus retroflexus) herbicidal effect grade (Amaranthus retroflexus; [4]): 3 (Herbicidal ratio of 40% or higher and lower than 70%); J: Alopecurus myosuroides, herbicidal effect grade (Alopecurus myosuroides): 5 (Herbicidal ratio of 90% or more (almost completely withered)); f: beet, effect on crop grade (beet): 1 (Herbicidal ratio of 5% or higher and lower than 20%); L (Apera spica-venti) herbicidal effect grade (Apera spica-venti; [4]): 5 (Herbicidal ratio of 90% or more (almost completely withered)); e (wheat) effect on crop grade (wheat [1]; [4]): 3 (Herbicidal ratio of 40% or higher and lower than 70%); I: Avena fatua, herbicidal effect grade (Avena fatua): 5 (Herbicidal ratio of 90% or more (almost completely withered)); d: soybean, effect on crop grade (soybean): 4 (Herbicidal ratio of 70% or higher and lower than 90%); G (Setaria viridis) herbicidal effect grade (Setaria viridis; [4]): 5 (Herbicidal ratio of 90% or more (almost completely withered)); e: wheat, effect on crop grade (wheat [3]): 4 (Herbicidal ratio of 70% or higher and lower than 90%); M (Abutilon theophrasti) herbicidal effect grade (Abutilon theophrasti; [4]): 4 (Herbicidal ratio of 70% or higher and lower than 90%); b (directly sowed rice plant) effect on crop grade (rice; [4]): 5 (Herbicidal ratio of 90% or more (almost completely withered))
CON=C(C)CC1CC(OC(=O)C(C)Oc2ccc(Oc3cnc4cc(Cl)ccc4n3)cc2)=C(c2c(C)cc(C)cc2C)C1=O (centres unmarked) [1-087] | 5 (Herbicidal ratio of 90% or more (almost completely withered)) | 0 (Herbicidal ratio of 5% or lower (almost no effect)) | 1 (Herbicidal ratio of 5% or higher and lower than 20%) | 5 (Herbicidal ratio of 90% or more (almost completely withered)) | 5 (Herbicidal ratio of 90% or more (almost completely withered)) | 4 (Herbicidal ratio of 70% or higher and lower than 90%) | 5 (Herbicidal ratio of 90% or more (almost completely withered)) | 5 (Herbicidal ratio of 90% or more (almost completely withered)) | 5 (Herbicidal ratio of 90% or more (almost completely withered)) | 5 (Herbicidal ratio of 90% or more (almost completely withered)) | 3 (Herbicidal ratio of 40% or higher and lower than 70%) | 5 (Herbicidal ratio of 90% or more (almost completely withered)) | 5 (Herbicidal ratio of 90% or more (almost completely withered)) | 5 (Herbicidal ratio of 90% or more (almost completely withered)) | 5 (Herbicidal ratio of 90% or more (almost completely withered)) | 5 (Herbicidal ratio of 90% or more (almost completely withered)) | 
